According to article PMC12731536, “Sc(III) Complexes of Pyclen Derivative Ligands as Probes for Hypoxia: Synthesis, Chemical Characterization, ^44Sc‐Radiolabeling, and Preclinical Assessment” (Chemistry (Weinheim an Der Bergstrasse, Germany), 2025):
Where two headings read alike, the source gives them in different places.

Key:
[1] = Stability constants of Sc(III) complexes, out‐of‐cell (batch) samples, 45Sc NMR; format: physicochemical; settings: for AL/M (relative affinity): [Sc(III)]total = 10 nM, [L]tot = 100 nM
Experimental: The stability constant of the complex of PC2AM^nBu ligand formed with Sc(III) ion was studied using “out‐of‐cell” (batch) samples using ^45Sc NMR spectroscopy in strongly acidic media. Typical ^45Sc NMR spectra are shown in Figure 5 along with the corresponding ^1H NMR spectra of the aromatic region of the ligand.
Using the ^45Sc NMR signal intensities of free Sc^3+ measured in the equilibrated samples, the stability constant, K ScL, was calculated by fitting the areas with the PSEQUAD program ^[ [47] ^] (Figure 6). The best fitting was observed by considering the simplest model including only [Sc(PC2AM^nBu)]^+ species; that is, the formation of protonated [Sc(HPC2AM^nBu)]^2+ cannot be confirmed.
The stability constant of the [Sc(PCTA)] complex was determined in a similar way (Figure S13). The results were summarized in Table 2, including the data of [Sc(DO3AM‐NI)], determined in our previous study.^[ [33] ^]
Among the complexes shown in Table 2, the [Sc(DO3AM‐NI)] complex has the highest stability, but its stability constant is lower than the corresponding values of [Sc(DOTA)]^− (log K ScL = 30.79) and [Sc(DTPA)]^2− (log K ScL = 27.43). ^[ [49] ^] As evidenced for DO3AM‐mono(amide) the replacement of acetate side chains with amide groups results in a decrease in stability constant (and conditional stability); therefore, we can see an order of magnitude difference between the stabilities of [Sc(PCTA)] and [Sc(PC2AM^nBu)]^+. Although these K ScL constants and pSc values are somewhat lower than those of the complexes formed with traditional DOTA and DTPA ligands, these chelators remain remarkably good Sc(III)‐binding chelators. […] Therefore, following the proposal of M. Meyer and colleagues,^[ [48] ^] […] For the AL/M values, 1 corresponds to 90%, 2 corresponds to 99%, 3 corresponds to 99.9% etc. for complex formation. […] The AL/M data of the [Sc(PC2AM^nBu)]^+ complex only exceeds that of the [Sc(DO3AM‐NI)] complex in the pH < 3.0 range, which can be advantageous for labeling at low pH. Furthermore, based on the data in Table 2, it can be concluded that for these systems there is no discrepancy between the trends observed in the pSc and AL/M values.
The stability constant of [Sc(PC2AM^nBu)]^+ and [Sc(PCTA)] complexes was studied using “out‐of‐cell” (batch) samples using ^45Sc and ^1H NMR spectroscopy. The NMR spectra were obtained using a Bruker Avance II DRX spectrometer (9.4 T), equipped with Bruker Variable Temperature Unit, Bruker Cooling Unit, and a 5 mm BB inverse z gradient probe. For the investigation of [Sc(PC2AMnBu)]⁺, twelve samples (cSc(III) = 3.00 mM, cligand = 3.06 mM, in the pH range of –log[H^+] = 0.1–1.3; I = 1.0 M NaCl/HCl) were prepared in NMR tubes and kept at 25 °C for one week to reach equilibrium. During this period, ^1H and ^45Sc NMR measurements were performed daily to monitor changes in signal intensities. No significant changes were detected after one week, even in the most acidic sample. The intensities of the free Sc(III) signals were normalized using a standard 50 mM ScCl3 solution containing 1 M HCl (20% D2O). For the determination of the stability of the [Sc(PCTA)] complex, eleven “batch” samples (cSc(III) = 4.00 mM, cligand = 4.08 mM), in the pH range of –log[H^+] = 0.1–1.25, were prepared. The evaluation of the measured data was performed using the PSEQUAD program.^[ [47] ^] Samples were prepared in H2O, with 10% D2O added for deuterium lock. The actual resonance frequencies for ^1H, ^13C, ^19F, and ^45Sc are indicated in the text and figure captions. The chemical shifts of ^1H and ^13C were calibrated using an external TMS standard, while ^19F was referenced to CCl3F. The ^45Sc NMR shift was calibrated to 0 ppm using a 5 mM solution of ScCl3 in 0.1 M HCl.

[2] = I = 0.15 M NaCl, T = 25 °C; cited from earlier work
[3] = cited from earlier work
[4] = pH‐potentiometric determination of ligand protonation constants; format: physicochemical; settings: T = 25 °C
Experimental: The equilibrium study of the PC2AM^nBu ligand has been started by determining the protonation constants in 0.15 M and 1.00 M NaCl ionic strength. (As the stability of the Sc(III) complex was determined in 1.00 M ionic strength, we had to perform the pH‐potentiometric titration of ligands using 1.00 M ionic strengths also.) The results of pH‐potentiometric measurement are shown in Table 1, where the corresponding data for 3,9‐PC2A,^[ [42] ^] PCTA ^[ [46] ^] and PC2AM‐NI ligands determined under identical conditions are also presented. Knowledge of the protonation constants defined by Eqn. 1 and 2 are essential for the calculation of the stability constants of the Sc(III) complexes:
(1) PC2AM^nBu^2−+nH^+⇌Hn(PC2AM^nBu)^−2+n (2) βn=HnPC2AM^nBu^−2+n/PC2AM^nBu^2−H^+^n
The protonation constants of the ligands, as well as the concentrations of the ligand stock solutions, were determined by pH‐potentiometric method using a Metrohm 785 DMP Titrino automatic titrator using a Metrohm 6.00234.100 combined glass electrode. The titrations were carried out in the pH range 1.75–11.80 and the pH electrode was calibrated by a two‐point calibration routine with the use of 0.05 M KH‐phthalate (pH = 4.005) and 0.01 M borax (pH = 9.177 buffers. The samples were stirred at 25 °C (±0.1 °C) and N2 gas bubbled into the system to ensure inert conditions and to eliminate the effect of the presence of CO2. For the calculation of [H^+] from the measured pH values, the method proposed by Irving et al. was applied.^[ [61] ^] For this, a 0.01 M HCl solution was titrated with the standardized NaOH solution in the presence of 0.15 M NaCl ionic strength at 25 °C. The differences between the measured (pHread) and calculated pH (‐log[H^+]) values were used to obtain the equilibrium H^+ concentration from the pHmeas values during the titrations. By fitting the resulting titration curves (pH – V (NaOH) data pairs) with the PSEQUAD program, the protonation constants of the ligands were determined.^[ [47] ^] The titration of the [Sc(PC2AM^nBu)]^+ with NaOH was performed with the same method by applying very similar conditions.

[5] = Acid‐assisted dissociation (decomplexation) of Sc(III) complexes, UV spectroscopy; format: physicochemical; settings: dissociation of the Sc(III) complex, 1.6‐2.6 M HClO4, 25 °C, I = 2.6 M
Source text: The inertness of metal complexes is a basic requirement in all relevant modalities of medical imaging. Complexes of macrocyclic ligands are often more inert compared to open‐chain analogs. In order to assess the behavior of our complexes, the decomplexation of [Sc(PC2AM^nBu)]^+ and [Sc(PCTA)] was studied in a strongly acidic medium (cH + = 1.6 ‐ 2.6 M HClO4) by using UV spectroscopy. […] The primary Abs. versus time curves have been fitted by monoexponential function returning kobs (s^−1) values (Figures S22 and S23).
The plots of the rate constants as a function of acid concentration yielded linear relationships for both complexes (k obs = k 0 + k 1[H^+]). The slopes of these lines correspond to the rate coefficients characteristic for acid‐assisted dissociation (k 1), whereas the intercepts characterize the acid‐independent part, often referred to as a rate of spontaneous dissociation. […] The rate coefficients obtained during the fitting are summarized in Table 3, along with the half‐lives calculated from the rate coefficients by using 1 M acid concentration (t ½ = ln 2 / k obs).
Kinetic studies of the dissociation of the [Sc(PC2AMnBu)]^+ and [Sc(PCTA)] complexes were carried out by examining the dependence of the dissociation rates on acid concentration. Spectrophotometric measurements were conducted on a JASCO V‐760 spectrophotometer at λ = 280 nm. The concentration of the complex in the sample was 0.30 mM, and HClO4 was applied in concentrations ranging from 1.6 to 2.6 M. The evaluation of the measured data was performed with Scientist software ^[ [62] ^] to determine the k 0 (spontaneous) and k 1 (acid‐assisted) reaction rates.

[6] = Time course of Sc(III) complex formation, 45Sc NMR; format: physicochemical
Experimental: The time course of complex formation of PC2AM^nBu and PCTA ligands with Sc(III) ion was investigated by ^45Sc‐NMR under acidic conditions (cSc = cligand = 10 mM and 9.5 mM, respectively, ‐log[H^+] = 1.28). The decrease of the narrow signal of the free Sc(III) ion was monitored as a function of time. […] The kinetic measurements of formation could be seen in Figures S18 and S19. The complexation for the [Sc(PCTA)] chelate at pH = 1.28 and 25 °C took about 300 minutes to reach the equilibrium, whereas for the [Sc(PC2AM^nBu)]^+ complex it took a bit longer time under these conditions. (In order to confirm that the samples reached the equilibrium, we have repeated the ^45Sc NMR study for both samples after a few days when the signal of the free Sc(III) was absent, and only the signals of the complexes were detected.) The detailed study of formation kinetics was not our aim in this project. One can expect that the reaction follows the well‐known mechanisms of M(III) ‐ macrocyclic APC systems ^[ [54] ^]: formation of a protonated intermediate in fast pre‐equilibrium followed by a slow, base‐catalyzed deprotonation/structural rearrangement as a rate‐determining step. The intermediate is named also as “out‐of‐cage complex.”^[ [55] ^] Our experimental curves are likely in accordance with this mechanism. Fitting the measured data for the free Sc(III) signals by a monoexponential function gives the rate constant k obs = (1.04 ± 0 .05) x 10^−4 s^−1 for the [Sc(PC2AM^nBu)]^+ and k obs = (2.51 ± 0.12) x 10^−4 s^−1 for the [Sc(PCTA)] complex. […] The relatively fast complex formation at the given acidic condition is very encouraging for the Sc(III) labeling experiments.
^45Sc NMR measurements (97 MHz) were performed on a Bruker DRX 400 (9.4 T) spectrometer equipped with a Bruker VT‐1000 thermocontroller and a BB inverse z‐gradient probe (5 mm). The kinetic experiments were performed at 25 °C in aqueous solution, using D2O (10% v/v) as a lock solvent. Typical parameters for 45Sc NMR measurements were used: TD = 32k, p1 = 15.6 µs (90°), d 1 = 0.1 s. The formation reactions of the [Sc(PC2AM^nBu)]^+ and [Sc(PCTA)] complexes were monitored by ^45Sc NMR spectroscopy in two sample types: one containing 10.0 mM PC2AM^nBu and ScCl3 / 9.5 mM […] and ScCl3. In both cases, the total acid concentration corresponded to a pH of 1.28. Obtained monoexponential curves (signal area of free Sc(III) vs. time) were fitted using Scientist software ^[ [62] ^] to determine the formation rate.

O=C(O)CN1CCN(CC(=O)O)CCN(CC(=O)NCCn2ccnc2[N+](=O)[O-])CCN(CC(=O)O)CC1 [DO3AM‐NI]
AL/M (relative affinity) ([1]; pH = 7.4, I = 0.15 M NaCl, calculated from constants of ref 33): 6.57 | log β 2 ^H [2]: 17.38 | pSc ([3]; pSc = ‐log[Sc(III)]free, cSc(III) = 1x10^−8 M, clig = 1x10^−7 M, pH = 7.4, I = 0.15 M NaCl): 20.74 | log K ScL ([3]; stability constant of the Sc(III) complex, I = 0.15 M NaCl, T = 25 °C): 22.36

CCCCNC(=O)CN1CCN(CC(=O)O)Cc2cccc(n2)CN(CC(=O)O)CC1 [PC2AM^nBu]
log K 1 ^H ([4]; I = 0.15 M NaCl): 8.79(1) | log K 2 ^H ([4]; I = 0.15 M NaCl): 7.59(1) | log K 3 ^H ([4]; I = 0.15 M NaCl): 2.31(2) | log K 4 ^H ([4]; I = 0.15 M NaCl): 1.28(3) | log β 2 ^H ([4]; I = 0.15 M NaCl): 16.38 | log K 1 ^H ([4]; I = 1.00 M NaCl): 8.13(2) | log K 2 ^H ([4]; I = 1.00 M NaCl): 7.59(1) | log K 3 ^H ([4]; I = 1.00 M NaCl): 2.52(1) | log β 2 ^H ([4]; I = 1.00 M NaCl): 15.72 | AL/M (relative affinity) ([1]; pH = 7.4, I = 1.00 M NaCl): 5.17 | pSc ([1]; pSc = ‐log[Sc(III)]free, cSc(III) = 1x10^−8 M, clig = 1x10^−7 M, pH = 7.4, I = 1.00 M NaCl): 19.32 | log K ScL ([1]; stability constant of the Sc(III) complex, I = 1.00 M NaCl, T = 25 °C): 19.53(4) | k 0 (spontaneous dissociation) [5]: 0 s⁻¹ | k 1 (acid‐assisted dissociation) [5]: (3.64 ± 0.08) x 10^−7 M^−1s^−1

O=C([O-])CN1CCN(CC(=O)[O-])CCN(CC(=O)[O-])CCN(CC(=O)[O-])CC1.[Sc+3] [[Sc(DOTA)]^−]
log K ScL ([3]; literature stability constant): 30.79

O=C([O-])CN(CCN(CC(=O)[O-])CC(=O)[O-])CCN(CC(=O)[O-])CC(=O)[O-].[Sc+3] [[Sc(DTPA)]^2−]
log K ScL ([3]; literature stability constant): 27.43

O=C([O-])CN1CCN(CC(=O)[O-])Cc2cccc(n2)CN(CC(=O)[O-])CC1.[Sc+3] [[Sc(PCTA)]]
time of complexation to reach the equilibrium ([6]; pH = 1.28, 25 °C): about 300 minutes | half‐life of the complex formation reaction (t 1/2 = ln2 / k obs) ([6]; ‐log[H^+] = 1.28, 25 °C): 46 min | k obs of complex formation ([6]; ‐log[H^+] = 1.28, 25 °C, cSc = cligand = 10 mM (PC2AM^nBu) or 9.5 mM (PCTA), monoexponential fit of free Sc(III) signal): (2.51 ± 0.12) x 10^−4 s^−1
